From patent US10919896B2, “Preparation and uses of pyrimidinone derivatives” (Cancer Research Technology Limited, priority 2016, dated 2021) come the findings set out here.

Counter-ions that a name gives are not always drawn.

Experiment [1] deals with Cdc7 (pS53MCM2 levels in SW48 cells). Put plainly: Cdc7 Cell Pharmacodynamics Assay Method 3: pS53MCM2 levels in SW48 cells, 6 hours. Type of experiment: cell-based. The note with it: Homo sapiens, SW48, 6 h, read-out: Biomarker Method 3 (pEC50) (converted).
Experiment [2] has as its target Cdc7/ASK (Homo sapiens, UniProt O00311). Nature of the experiment: Cdc7 Biochemical Assay Method 4: off-chip mobility shift assay (Carna Biosciences). Also noted: purchased Carna Biosciences; host or cells: baculovirus expression system. The note with it: off-chip MSA, MCM2 peptide, 5 hours; read-out: Biochemical Method 4 (pIC50) (converted). The method, then: This protocol describes a method for assaying Cdc7/ASK for activity. The assay is an off-chip mobility shift assay (MSA) run at Carna Biosciences.
1. Preparation of Test Compound Solution.
The test compound was dissolved in and diluted with dimethylsulfoxide (DMSO) to achieve 100-fold higher concentration which was specified by the sponsor. Then the solution was further 25-fold diluted with assay buffer to make the final test compound solution. Reference compounds for assay control were prepared similarly.
Cdc7/ASK: Full-length human Cdc7 [1-574(end) amino acids of accession number NP_003494.1] was co-expressed as N-terminal GST-fusion protein (92 kDa) with Dbf4(ASK) [1-674(end) amino acids of accession number NP_006707.1] using baculovirus expression system. GST-Cdc7 was purified by using glutathione sepharose chromatography.
3. Assay Reagents and Procedures
Off-chip Mobility Shift Assay (MSA)
1) The […] of ×2 kinase solution were prepared with assay buffer (20 mM HEPES, 0.01% Triton X-100, 1 mM DTT, pH 7.5) and mixed and incubated in a well of polypropylene 384 well microplate for 5 hours at room temperature. 2) […] of Termination Buffer (QuickScout Screening Assist MSA; Carna Biosciences) was added to the well. 3) The reaction mixture was applied to LabChip system (Perkin Elmer), and the product and substrate peptide peaks were separated and quantitated. 4) The kinase reaction was evaluated by the product ratio calculated from peak heights of product (P) and substrate (S) peptides (P/(P+S)).
Reaction time is 5 hours.
The readout value of reaction control (complete reaction mixture) was set as a 0% inhibition, and the readout value of background (Enzyme(−)) was set as a 100% inhibition, then the percent inhibition of each test solution was calculated.
IC50 value was calculated from concentration vs. % Inhibition curves by fitting to a four parameter logistic curve.

Sequence of Cdc7/ASK (O00311 whole entry): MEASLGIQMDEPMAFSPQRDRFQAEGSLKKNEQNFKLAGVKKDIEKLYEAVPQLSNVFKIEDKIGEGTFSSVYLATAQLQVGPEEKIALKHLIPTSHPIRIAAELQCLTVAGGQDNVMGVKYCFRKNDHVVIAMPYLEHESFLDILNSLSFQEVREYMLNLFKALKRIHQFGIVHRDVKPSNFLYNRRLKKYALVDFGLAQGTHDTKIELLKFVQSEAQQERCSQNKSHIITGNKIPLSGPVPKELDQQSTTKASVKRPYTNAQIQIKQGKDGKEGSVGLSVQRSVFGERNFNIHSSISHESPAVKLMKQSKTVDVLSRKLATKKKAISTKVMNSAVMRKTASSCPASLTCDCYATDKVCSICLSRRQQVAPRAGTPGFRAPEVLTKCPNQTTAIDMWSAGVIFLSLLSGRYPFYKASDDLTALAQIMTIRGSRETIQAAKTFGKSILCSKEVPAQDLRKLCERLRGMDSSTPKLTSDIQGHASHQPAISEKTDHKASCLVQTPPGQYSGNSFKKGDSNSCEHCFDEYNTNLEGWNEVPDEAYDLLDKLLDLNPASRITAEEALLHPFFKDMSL
Sequence of Cdc7/ASK (Q9UBU7 whole entry partner): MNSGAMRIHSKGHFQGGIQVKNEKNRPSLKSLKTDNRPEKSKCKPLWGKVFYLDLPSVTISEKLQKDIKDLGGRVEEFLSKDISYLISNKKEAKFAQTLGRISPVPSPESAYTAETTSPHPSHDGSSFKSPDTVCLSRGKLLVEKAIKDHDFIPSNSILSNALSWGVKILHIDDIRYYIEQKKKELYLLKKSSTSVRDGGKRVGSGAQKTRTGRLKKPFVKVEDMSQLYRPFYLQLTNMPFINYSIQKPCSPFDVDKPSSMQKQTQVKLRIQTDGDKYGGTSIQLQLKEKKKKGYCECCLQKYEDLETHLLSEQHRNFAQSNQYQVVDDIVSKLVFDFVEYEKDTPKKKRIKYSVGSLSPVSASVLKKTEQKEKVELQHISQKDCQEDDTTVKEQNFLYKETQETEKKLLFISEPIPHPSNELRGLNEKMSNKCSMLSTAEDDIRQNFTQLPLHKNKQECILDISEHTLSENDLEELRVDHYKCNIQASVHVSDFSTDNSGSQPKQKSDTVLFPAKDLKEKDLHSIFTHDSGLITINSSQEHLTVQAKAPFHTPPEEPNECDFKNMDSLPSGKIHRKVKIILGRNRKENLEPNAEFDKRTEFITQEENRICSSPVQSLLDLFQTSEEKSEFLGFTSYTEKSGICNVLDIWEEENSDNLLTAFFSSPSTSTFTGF

Take `O=c1[nH]c(-c2ccnc(F)c2)nc(N2CCCC(F)(F)C2)c1Cl` [Compound 90, 5-chloro-4-(3,3-difluoro-1-piperidyl)-2-(2-fluoro-4-pyridyl)-1H-pyrimidin-6-one]: the EC50 in experiment [1] is 589 nM. Same read-out and setting: the figure for `O=c1[nH]c(-c2ccncc2)nc(N2CCN[C@H](C(F)(F)F)C2)c1Cl` [Compound 139] is 4070 nM; for `O=c1[nH]c(-c2ccncc2)nc(N2CCN[C@@H](C(F)(F)F)C2)c1Cl` [Compound 180] it is 339 nM. Consider `O=c1[nH]c(-c2ccnc(F)c2)nc(N2CCNCC(F)(F)C2)c1Cl` [Compound 312, 5-chloro-4-(6,6-difluoro-1,4-diazepan-1-yl)-2-(2-fluoro-4-pyridyl)-1H-pyrimidin-6-one hydrochloride], for which, in experiment [1], the EC50 was 145 nM. In experiment [2], the IC50 was 3.72 nM. The corresponding values for `C[C@@H]1CNCCN1c1nc(-c2ccnc(F)c2)[nH]c(=O)c1Cl` [Compound 323] are 79.4 nM and 3.09 nM.
